Test results reported in patent US10266497B2 (ABIDE THERAPEUTICS, INC., priority 2017, dated 2019).

What was measured:
FAAH [1] = biological target: T1, FAAH (Mus musculus, UniProt O08914); assay: Mouse brain proteomes from inhibitor treated mice (oral gavage, sacrificed 4 h after administration), FAAH; format: in vivo; parameters: mouse brain membrane fraction for mouse assays; from tissue; host or cells: mouse brain (membrane fraction in vitro; brain proteomes of treated C57Bl/6J mice in vivo); conditions: 5 mg/kg oral gavage, brain proteome 4 h after administration, read-out: FAAH % inh. 5 mg/kg (mouse)
T1 sequence (O08914 1-579): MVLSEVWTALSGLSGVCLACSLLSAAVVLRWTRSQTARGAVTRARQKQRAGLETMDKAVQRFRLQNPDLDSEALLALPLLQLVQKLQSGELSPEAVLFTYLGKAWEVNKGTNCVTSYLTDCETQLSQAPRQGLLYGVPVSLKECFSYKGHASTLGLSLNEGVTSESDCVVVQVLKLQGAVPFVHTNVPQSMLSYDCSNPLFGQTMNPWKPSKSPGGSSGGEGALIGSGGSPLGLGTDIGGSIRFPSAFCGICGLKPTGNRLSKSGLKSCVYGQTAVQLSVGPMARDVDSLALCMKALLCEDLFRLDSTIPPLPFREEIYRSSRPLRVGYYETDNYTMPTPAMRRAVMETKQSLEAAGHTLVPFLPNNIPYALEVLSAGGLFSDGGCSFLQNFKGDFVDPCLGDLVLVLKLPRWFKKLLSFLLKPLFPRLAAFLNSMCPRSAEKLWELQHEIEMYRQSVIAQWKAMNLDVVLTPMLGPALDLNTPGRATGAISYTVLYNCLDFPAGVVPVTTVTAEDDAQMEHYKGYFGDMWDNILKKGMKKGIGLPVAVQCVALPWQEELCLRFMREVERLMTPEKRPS

FAAH [2] = biological target: T1, FAAH; assay: In vitro competitive activity-based protein profiling, FAAH, mouse; conditions: read-out: FAAH % inh. 1 μM (mouse)
Method: Biological Evaluation In Vitro Competitive Activity-Based Protein Profiling.
Proteomes (mouse brain membrane fraction for mouse assays; human prefrontal cortex membrane fractions for human assays) (50 mL, 1.0 mg/mL total protein concentration) were preincubated with varying concentrations of inhibitors at 37° C. After 30 min, FP-Rh (1.0 mL, 50 mM in DMSO) was added and the mixture was incubated for another 30 min at 37° C. Reactions were quenched with SDS loading buffer (15 μL—4λ) and run on SDS-PAGE.

MAGL [3] = biological target: T2, MAGL (Mus musculus, UniProt O35678); assay: In vitro competitive activity-based protein profiling, MAGL, mouse; conditions: read-out: MAGL % inh. 1 μM (mouse)
T2 sequence (O35678 1-303): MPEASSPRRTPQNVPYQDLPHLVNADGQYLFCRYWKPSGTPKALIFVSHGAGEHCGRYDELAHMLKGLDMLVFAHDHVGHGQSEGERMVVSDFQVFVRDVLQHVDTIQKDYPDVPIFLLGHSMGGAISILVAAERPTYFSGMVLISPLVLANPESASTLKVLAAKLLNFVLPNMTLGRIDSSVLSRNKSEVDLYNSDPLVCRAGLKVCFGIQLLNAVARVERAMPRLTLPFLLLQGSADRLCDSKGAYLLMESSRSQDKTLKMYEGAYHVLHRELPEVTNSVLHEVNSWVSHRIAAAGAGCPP

MAGL [4] = biological target: T3, MAGL (Homo sapiens, UniProt Q99685); assay: In vitro competitive activity-based protein profiling, MAGL, human; conditions: for inhibition at 1 µM: read-out: MAGL % inh. 1 μM (human)
T3 sequence (Q99685 1-303): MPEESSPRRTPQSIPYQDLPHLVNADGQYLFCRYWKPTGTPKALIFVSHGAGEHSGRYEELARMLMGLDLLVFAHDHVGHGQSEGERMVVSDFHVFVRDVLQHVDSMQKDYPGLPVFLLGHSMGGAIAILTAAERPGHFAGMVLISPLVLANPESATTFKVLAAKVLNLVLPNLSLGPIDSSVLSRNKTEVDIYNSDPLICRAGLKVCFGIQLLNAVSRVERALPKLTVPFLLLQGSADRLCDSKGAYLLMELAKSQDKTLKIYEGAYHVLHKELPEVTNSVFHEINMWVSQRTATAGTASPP

MAGL [5] = biological target: T2, MAGL; assay: Mouse brain proteomes from inhibitor treated mice (oral gavage, sacrificed 4 h after administration); format: in vivo; parameters: mouse brain membrane fraction for mouse assays; from tissue; host or cells: mouse brain (membrane fraction in vitro; brain proteomes of treated C57Bl/6J mice in vivo); conditions: 5 mg/kg oral gavage, brain proteome 4 h after administration, read-out: MAGL % inh. 5 mg/kg (mouse)
FAAH [6] = biological target: T4, FAAH (Homo sapiens, UniProt O00519); assay: In vitro competitive activity-based protein profiling, FAAH, human; conditions: for inhibition at 1 µM: read-out: FAAH % inh. 1 μM (human)
T4 sequence (O00519 1-579): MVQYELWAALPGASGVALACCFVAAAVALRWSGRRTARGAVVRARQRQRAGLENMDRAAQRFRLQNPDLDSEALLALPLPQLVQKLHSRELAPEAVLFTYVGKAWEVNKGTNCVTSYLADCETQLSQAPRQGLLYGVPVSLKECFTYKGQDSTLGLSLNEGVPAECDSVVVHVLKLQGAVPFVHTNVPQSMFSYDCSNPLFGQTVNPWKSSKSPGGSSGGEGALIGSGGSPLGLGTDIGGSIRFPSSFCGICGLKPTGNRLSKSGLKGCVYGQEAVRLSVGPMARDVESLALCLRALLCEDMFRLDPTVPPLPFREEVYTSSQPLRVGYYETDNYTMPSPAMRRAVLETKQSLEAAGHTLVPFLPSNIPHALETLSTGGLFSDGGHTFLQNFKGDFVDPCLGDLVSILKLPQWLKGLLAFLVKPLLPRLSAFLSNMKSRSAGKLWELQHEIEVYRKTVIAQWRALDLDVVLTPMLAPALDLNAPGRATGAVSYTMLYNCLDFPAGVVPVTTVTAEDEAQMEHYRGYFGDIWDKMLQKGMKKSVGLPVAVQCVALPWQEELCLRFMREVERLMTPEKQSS

Row | Structure (SMILES) | inhibition at 5 mg/kg (FAAH [1]) [%] | inhibition at 1 µM (FAAH [2]) [%] | inhibition at 1 µM (MAGL [3]) [%] | IC50 (MAGL [4]) [nM] | inhibition at 1 µM (MAGL [4]) [%] | inhibition at 5 mg/kg (MAGL [5]) [%] | IC50 (FAAH [6]) [nM] | inhibition at 1 µM (FAAH [6]) [%]
1 | O=C(O)c1ccn(C(=O)N2CC3CN(Cc4cccc(Oc5ccc(Cl)cc5)c4)CC3C2)n1 (stereo not drawn) [Example 116, 1-(5-(3-(4-chlorophenoxy)benzyl)octahydro-pyrrolo[3,4-c]pyrrole-2-carbonyl)-1H-pyrazole-3-carboxylic acid] | 0 to 25 | 0 to 25 | > 75 | 100 to 1000 | > 75 | 0 to 25 | 100 to 1000 | > 75
2 | O=C(O)c1ccn(C(=O)N2CCN(Cc3ccc(C(F)(F)F)cc3N3C4CCC3COC4)CC2)n1 [Example 118, 1-(4-(2-(3-oxa-8-azabicyclo[3.2.1]octan-8-yl)-4-(trifluoromethyl)benzyl)piperazine-1-carbonyl)-1H-pyrazole-3-carboxylic acid] | 0 to 25 | 0 to 25 | > 75 |  | > 75 | 0 to 25 |  | 0 to 25
3 | CC(=O)NC1CCN(c2cc(C(F)(F)F)ccc2CN2CCN(C(=O)n3ccc(C(=O)O)n3)CC2)CC1 [Example 119, 1-(4-(2-(4-acetamidopiperidin-1-yl)-4-(trifluoromethyl)benzyl)piperazine-1-carbonyl)-1H-pyrazole-3-carboxylic acid] | 0 to 25 | 0 to 25 | > 75 |  | > 75 | 0 to 25 |  | 0 to 25
4 | O=C(O)c1ccn(C(=O)N2CCN(Cc3ccc(C(F)(F)F)cc3N3CCC(O)CC3)CC2)n1 [Example 120, 1-(4-(2-(4-hydroxypiperidin-1-yl)-4-(trifluoromethyl)benzyl)piperazine-1-carbonyl)-1H-pyrazole-3-carboxylic acid] | 0 to 25 | 0 to 25 | > 75 |  | > 75 | 0 to 25 |  | 0 to 25
5 | O=C(O)c1ccn(C(=O)N2CCC(Oc3ccc(Cl)c(N4CCCC4)c3)CC2)n1 [Example 121, 1-(4-(4-chloro-3-(pyrrolidin-1-yl)phenoxy)piperidine-1-carbonyl)-1H-pyrazole-3-carboxylic acid] | 0 to 25 | 0 to 25 | > 75 |  | > 75 | 0 to 25 |  | 0 to 25
6 | O=C(O)c1ccn(C(=O)N2CC3CN(Cc4ccc(N5CCCC5)cc4C(F)(F)F)CC3C2)n1 (stereo not drawn) [Example 123, 1-(5-(4-(pyrrolidin-1-yl)-2-(trifluoromethyl)benzyl)octahydro-pyrrolo[3,4-c]pyrrole-2-carbonyl)-1H-pyrazole-3-carboxylic acid] | 0 to 25 | > 75 | > 75 |  | > 75 | 0 to 25 |  | 50 to 75
7 | O=C(O)c1ccn(C(=O)N2CC3CN(Cc4cc(Cl)cc(C(F)(F)F)c4)CC3C2)n1 (stereo not drawn) [Example 124, 1-(5-(3-chloro-5-(trifluoromethyl)benzyl)octahydro-pyrrolo[3,4-c]pyrrole-2-carbonyl)-1H-pyrazole-3-carboxylic acid] | 25 to 50 | > 75 | > 75 |  | > 75 | 0 to 25 | 100 to 1000 | 50 to 75
8 | Cc1cn(C(=O)N2CCC3(CCN(Cc4cc(Cl)ccc4C(F)(F)F)C3)CC2)nc1C(=O)O [Example 130, 1-(2-(5-chloro-2-(trifluoromethyl)benzyl)-2,8-diazaspiro[4.5]decane-8-carbonyl)-4-methyl-1H-pyrazole-3-carboxylic acid] | 0 to 25 | 50 to 75 | > 75 |  | > 75 | 0 to 25 | 100 to 1000 | 50 to 75
9 | O=C(O)c1nn(C(=O)N2CCN(Cc3cccc(Oc4ccc(Cl)cc4)c3)CC2)cc1Cl [Example 132, 4-chloro-1-(4-(3-(4-chlorophenoxy)benzyl)piperazine-1-carbonyl)-1H-pyrazole-3-carboxylic acid] | 0 to 25 | > 75 | > 75 |  | > 75 | 0 to 25 |  | > 75
10 | O=C(O)c1nn(C(=O)N2CCC3(CCN(Cc4cc(Cl)ccc4C(F)(F)F)C3)CC2)cc1Cl [Example 133, 4-chloro-1-(2-(5-chloro-2-(trifluoromethyl)benzyl)-2,8-diazaspiro[4.5]decane-8-carbonyl)-1H-pyrazole-3-carboxylic acid] | 0 to 25 | > 75 | > 75 |  | > 75 | 0 to 25 | 100 to 1000 | > 75
11 | Cc1cn(C(=O)N2CCC3(CC2)CN(Cc2ccc(C(F)(F)F)cc2N2CCCC2)C3)nc1C(=O)O [Example 135, 4-methyl-1-(2-(2-(pyrrolidin-1-yl)-4-(trifluoromethyl)benzyl)-2,7-diazaspiro[3.5]non-ane-7-carbonyl)-1H-pyrazole-3-carboxylic acid] | 0 to 25 | 0 to 25 | > 75 |  | > 75 | 0 to 25 |  | 0 to 25
12 | O=C(O)c1nn(C(=O)N2CCC3(CCCN3Cc3cc4ccc(C(F)(F)F)cc4s3)CC2)cc1Cl [Example 139, 4-chloro-1-(1-((6-(trifluoromethyl)benzo[b]thiophen-2-yl)methyl)-1,8-diazaspiro[4.5]decane-8-carbonyl)-1H-pyrazole-3-carboxylic acid] | 0 to 25 | > 75 | > 75 |  | > 75 | 0 to 25 |  | > 75
13 | O=C(O)c1nn(C(=O)N2CC3CN(Cc4ccc(N5CCCC5)cc4C(F)(F)F)CC3C2)cc1Cl (stereo not drawn) [Example 140, 4-chloro-1-(5-(4-(pyrrolidin-1-yl)-2-(trifluoromethyl)benzyl)octahydro-pyrrolo[3,4-c]pyrrole-2-carbonyl)-1H-pyrazole-3-carboxylic acid] | 0 to 25 | 50 to 75 | > 75 |  | > 75 | 0 to 25 | 100 to 1000 | 50 to 75
